Literature values in patent publication US20150290158A1, “X-RAY CONTRAST MEDIA COMPOSITIONS AND METHODS OF USING THE SAME TO TREAT, REDUCE OR DELAY THE ONSET OF CNS INFLAMMATION AND INFLAMMATION ASSOCIATED CONDITIONS” (priority 2012, published 2015).
Peptide text beside a SMILES is read from it.

Key:
TNF-alpha = conditions: in vitro
[1] = system: allergen induced nasal obstruction; conditions: used as a nasal spray, in vivo
mast cell degranulation = conditions: in vitro, immunological and non-immunological stimuli
[2] = biological target: angiotensin converting enzyme (ACE) (Homo sapiens, UniProt P12821); conditions: compared with commercial iopamidol (contains chelator); from Lasser et al., 1990
angiotensin converting enzyme (ACE), sequence (P12821 30-1306, species assumed): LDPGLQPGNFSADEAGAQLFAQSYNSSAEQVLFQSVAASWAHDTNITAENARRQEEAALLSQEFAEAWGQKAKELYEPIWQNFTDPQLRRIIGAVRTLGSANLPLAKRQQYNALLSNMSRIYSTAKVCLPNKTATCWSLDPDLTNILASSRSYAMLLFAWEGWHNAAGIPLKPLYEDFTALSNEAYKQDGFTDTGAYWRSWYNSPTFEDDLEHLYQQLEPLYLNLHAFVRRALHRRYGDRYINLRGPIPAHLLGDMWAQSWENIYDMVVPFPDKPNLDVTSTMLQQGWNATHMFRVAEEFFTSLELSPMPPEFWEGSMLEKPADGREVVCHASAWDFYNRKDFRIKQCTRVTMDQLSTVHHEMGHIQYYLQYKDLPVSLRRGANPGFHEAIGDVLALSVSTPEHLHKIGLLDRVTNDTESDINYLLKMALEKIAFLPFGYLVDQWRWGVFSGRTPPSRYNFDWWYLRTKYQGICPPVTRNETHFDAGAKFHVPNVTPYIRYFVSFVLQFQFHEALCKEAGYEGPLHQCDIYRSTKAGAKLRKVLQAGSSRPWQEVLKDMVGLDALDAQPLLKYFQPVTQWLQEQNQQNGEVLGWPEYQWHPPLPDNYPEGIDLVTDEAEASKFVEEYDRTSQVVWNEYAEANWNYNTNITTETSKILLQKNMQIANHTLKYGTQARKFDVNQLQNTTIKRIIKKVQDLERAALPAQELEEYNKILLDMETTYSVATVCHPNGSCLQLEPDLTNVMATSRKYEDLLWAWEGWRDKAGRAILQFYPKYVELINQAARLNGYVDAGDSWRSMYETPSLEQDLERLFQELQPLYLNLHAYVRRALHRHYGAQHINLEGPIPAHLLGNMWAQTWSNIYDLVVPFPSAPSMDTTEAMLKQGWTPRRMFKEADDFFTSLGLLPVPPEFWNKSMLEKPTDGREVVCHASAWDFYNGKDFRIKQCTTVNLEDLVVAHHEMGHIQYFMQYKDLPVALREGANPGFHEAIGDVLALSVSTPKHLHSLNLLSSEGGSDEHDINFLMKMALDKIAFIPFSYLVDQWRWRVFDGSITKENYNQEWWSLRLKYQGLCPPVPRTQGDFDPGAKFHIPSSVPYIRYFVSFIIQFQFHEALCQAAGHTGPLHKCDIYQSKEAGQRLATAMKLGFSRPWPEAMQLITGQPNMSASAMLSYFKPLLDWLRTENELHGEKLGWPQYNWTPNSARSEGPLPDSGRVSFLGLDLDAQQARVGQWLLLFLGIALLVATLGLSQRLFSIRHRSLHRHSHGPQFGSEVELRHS

O=C(O)c1cc(=O)c2c(OCC(O)COc3cccc4oc(C(=O)O)cc(=O)c34)cccc2o1 [Sodium cromoglycate]
inhibition of TNF-alpha (TNF-alpha): inhibited TNF-alpha in vitro

CC(=O)N[C@@H](CC(=O)[O-])C(=O)N[C@@H](CCC(=O)[O-])C(=O)O.[Mg+2] [magnesium salt of n-acetyl aspartyl glutamic acid] (Ac-Asp-Glu-OH)
allergen induced nasal obstruction [1]: reduce allergen induced nasal obstruction
mast cell degranulation (mast cell degranulation): inhibit mast cell degranulation

CCCc1c2oc(C(=O)[O-])cc(=O)c2cc2c(=O)cc(C(=O)[O-])n(CC)c12.[Na+].[Na+] [nedocrimal sodium]
inhibition of TNF-alpha (TNF-alpha): inhibited TNF-alpha in vitro

C[C@H](O)C(=O)Nc1c(I)c(C(=O)NC(CO)CO)c(I)c(C(=O)NC(CO)CO)c1I [purified iopamidol, iopamidol]
inhibition of ACE [2]: diminishes the inhibition ACE significantly
